According to patent US20020114813A1, “Compounds” (priority 1990, published 2002):
Like-named read-outs stand apart in the source and are kept apart here.

Tested on: H.Ep-2 cell line
Experiment: Cytotoxicity in vitro, cell survival by trypan blue exclusion
Assay type: cell-based
Details: Homo sapiens, read-out: IC50 (dose required to give 50% cell survival)
Method: Cytotoxicity in vitro. The human epidermoid carcinoma cell line H.Ep-2 was originally obtained from a metastatic nodule in the neck of a patient with a primary tumour of the larynx. it was established in tissue culture after two generations in X-irradiated, cortisone-treated rats. Immunocytochemistry has shown the cells to bind the H17E2 antibody, but not HMFGl, which was used as a negative control in these studies. Cells were cultured in RPMI 1640 tissue culture medium supplemented with 10% foetal calf serum (Gibco Ltd, Paisley, Scotland). For cell survival experiments, after harvesting with 0.02% EDTA, 5×10^5 cells were plated in quadruplicate into 25-cm^2 Falcon flasks (Becton Dickinson, N.J., USA). Twenty-four hours later the cytotoxic agent was added (either amygdalin alone, β-glucosidase alone, amygdalin plus β-glucosidase, potassium cyanide alone, amygdalin plus H17E2β-glucosidase conjugate or amygdalin plus HMFGl-β-glucosidase conjugate). After 24 h exposure, the medium containing the drug was replaced with fresh medium and the cells allowed to grow for a further 24 h before counting by haemacytometry, using trypan blue exclusion as the criterion for cell integrity.

N#C[C@H](O[C@@H]1O[C@H](CO[C@@H]2O[C@H](CO)[C@@H](O)[C@H](O)[C@H]2O)[C@@H](O)[C@H](O)[C@H]1O)c1ccccc1 [amygdalin, D-mandelonitrile-β-D-glucosido-6-β-D-glycoside] gave an IC50 (HEp-2, in the presence of 0.35 μM β-glucosidase) of 600 ± 300 µM and an IC50 (HEp-2, in the presence of 3.5 μM β-glucosidase) of 500 ± 200 µM.
